What was measured:
[1] = test system: Blumeria graminis f. sp. hordei; assay: Test Example D: Powdery mildew on barley; conditions: Blumeria graminis, in Hordeum vulgare, topical, read-out: Test D control value class
Procedure: Seeds of a test plant (barley variety: Akashinriki) were planted and cultivated until the first leaves appeared. In the test, the inventive compounds were dissolved into dimethyl sulfoxide-methanol mixture solution (volume ratio: 9/1), and the resultant solutions were diluted with well water to a concentration of 250 ppm to obtain the drug solutions. The drug solutions were sprayed to the test plant (2.5 ml/pot). After the drug solutions dried, conidia of Blumeria graminis f. sp. hordei were inoculated to the plant by shaking off. The degrees of disease development were investigated 6 to 10 days after the inoculation, and the effectiveness of the drug solutions was evaluated.
In Test Examples described above, the degrees of disease development were evaluated in increments of 0.05 from 0 (as no incidence of disease) to 3 (as the degree of disease development in an untreated plant group). Further, control values were calculated using the following equation based on the degree of disease development.
n=Degree of disease development in each treated group

Alternaia brassicicola = assay: Test Example C: Alternaria sooty spot on cabbage; format: in vivo; conditions: Brassica oleracea, topical; Alternaria sooty spot on cabbage; class of control value; read-out: Test C control value class
Text: Seeds of a test plant (cabbage variety: Shikidori) were planted and cultivated until the cotyledons extended.
<Control Value> Control value=100{1−(n/3)}

Botrytis cinerea = assay: Test Example B: Gray mold on tomato; conditions: Botrytis cinerea, in Solanum lycopersicum, topical, read-out: Test B control value class
Magnaporthe grisea = assay: whole plant or invertebrate; format: in vivo; conditions: Pyricularia oryzae, in Oryza sativa, read-out: Test A control value class
Puccinia recondita = assay: Test Example E: Brown rust on wheat; format: in vivo; conditions: Puccinia recondita, topical; Brown rust on wheat; class of control value; read-out: Test E control value class
[2] = test system: Colletotrichum orbiculare; assay: Test Example H: Anthracnose on cucumber; conditions: Colletotrichum orbiculare, in Cucumis sativus, topical, read-out: Test H control value class
Plasmopara viticola = assay: Test Example G: Downy mildew on vine; conditions: Plasmopara viticola, topical, read-out: Test G control value class
Phytophthora infestans = assay: whole plant or invertebrate; format: in vivo; conditions: Phytophthora infestans, in Solanum lycopersicum, topical, read-out: Test F control value class

Row | Compound | pest or weed control at 250 µg/mL [1] [%] | pest or weed control at 250 µg/mL (Alternaia brassicicola) [%] | pest or weed control at 250 µg/mL (Botrytis cinerea) [%] | pest or weed control at 250 µg/mL (Magnaporthe grisea) [%] | pest or weed control at 250 µg/mL (Puccinia recondita) [%] | pest or weed control at 250 ppm [2] [%] | pest or weed control at 250 ppm (Plasmopara viticola) [%] | pest or weed control at 250 µg/mL (Phytophthora infestans) [%]
1 | CCn1c(-c2c(F)cc(F)cc2F)c(C(C)C)ccc1=O [Compound No. 7, 1-ethyl-5-isopropyl-6-(2,4,6-trifluorophenyl)pyridin-2(1H)-one] | > 50 | > 50 | > 50 | > 50 | > 50 | > 50 | > 50 | < 50
2 | CCn1c(-c2c(F)cc(F)cc2F)c(C(C)C)cc(Cl)c1=O [Compound No. 8, 3-chloro-1-ethyl-5-isopropyl-6-(2,4,6-trifluorophenyl)pyridin-2(1H)-one] | > 50 | > 50 | > 50 | > 50 | > 50 | > 50 | < 50 | < 50
3 | CCn1c(-c2c(F)cc(OC)cc2F)c(C(C)C)ccc1=O [Compound No. 10, 6-(2,6-Difluoro-4-methoxyphenyl)-1-ethyl-5-isopropylpyridin-2(1H)-one] | > 50 | > 50 | > 50 | > 50 | > 50 | > 50 | < 50 | < 50
4 | CCn1c(-c2c(F)cc(OC)cc2F)c(C(C)C)cc(Cl)c1=O [Compound No. 11, 3-Chloro-6-(2,6-difluoro-4-methoxyphenyl)-1-ethyl-5-isopropylpyridin-2(1H)-one] | > 50 | > 50 | > 50 | > 50 | > 50 | > 50 | < 50 | < 50
5 | CCn1c(-c2c(F)cccc2F)c(C=O)cc(Cl)c1=O [Compound No. 20, 5-chloro-2-(2,6-difluorophenyl)-1-ethyl-6-oxo-1,6-dihydropyridine-3-carb aldehyde] | < 50 | < 50 | > 50 | > 50 | > 50 | < 50 | > 50 | < 50
6 | CCn1c(-c2c(F)cccc2F)c(C(Br)Br)cc(Cl)c1=O [Compound No. 21, 3-chloro-5-(dibromomethyl)-6-(2,6-difluorophenyl)-1-ethylpyridin-2(1H)-one] | > 50 | < 50 | > 50 | < 50 | > 50 | < 50 | > 50 | < 50
7 | CCC(O)c1cc(Cl)c(=O)n(CC)c1-c1c(F)cccc1F (stereo not drawn) [Compound No. 24, 3-chloro-6-(2,6-difluorophenyl)-1-ethyl-5-(1-hydroxypropyl)pyridin-2(1H)-one] | > 50 | > 50 | > 50 | > 50 | > 50 | > 50 | < 50 | < 50
8 | CCC(OC)c1cc(Cl)c(=O)n(CC)c1-c1c(F)cccc1F (stereo not drawn) [Compound No. 25, 3-chloro-6-(2,6-difluorophenyl)-1-ethyl-5-(1-methoxypropyl)pyridin-2(1H)-one] | > 50 | > 50 | > 50 | > 50 | > 50 | > 50 | > 50 | < 50
9 | CCC(=O)c1cc(Cl)c(=O)n(CC)c1-c1c(F)cccc1F [Compound No. 26, 3-chloro-6-(2,6-difluorophenyl)-1-ethyl-5-propionylpyridin-2(1H)-one] | > 50 | > 50 | > 50 | > 50 | > 50 | > 50 | > 50 | < 50
10 | CCn1c(-c2c(F)cccc2F)c(C(C)(O)CC)cc(Cl)c1=O (stereo not drawn) [Compound No. 27, 3-chloro-6-(2,6-difluorophenyl)-1-ethyl-5-(2-hydroxybutan-2-yl)pyridin-2(1H)-one] | > 50 | > 50 | > 50 | > 50 | > 50 | > 50 | > 50 | < 50
11 | CCn1c(-c2c(F)cccc2F)c(C(C)(CC)OC)cc(Cl)c1=O (stereo not drawn) [Compound No. 29, 3-chloro-6-(2,6-difluorophenyl)-1-ethyl-5-(2-methoxybutan-2-yl)pyridin-2(1H)-one] | > 50 | > 50 | > 50 | > 50 | > 50 | > 50 | > 50 | < 50
12 | CCn1c(-c2c(F)cccc2F)c(C(C)(F)CC)cc(Cl)c1=O (stereo not drawn) [Compound No. 30, 3-chloro-6-(2,6-difluorophenyl)-1-ethyl-5-(2-fluorobutan-2-yl)pyridin-2(1H)-one] | > 50 | > 50 | > 50 | > 50 | > 50 | > 50 | > 50 | < 50
13 | CCn1c(-c2c(F)cccc2F)c(C(O)C(C)C)cc(Cl)c1=O (stereo not drawn) [Compound No. 53, 3-chloro-6-(2,6-difluorophenyl)-1-ethyl-5-(1-hydroxy-2-methylpropyl)pyridin-2(1H)-one] | > 50 | > 50 | > 50 | > 50 | > 50 | > 50 | > 50 | < 50
14 | CCn1c(-c2c(F)cc(F)cc2F)c(CN(C)OC)cc(Cl)c1=O [Compound No. 89, 3-chloro-1-ethyl-5-((methoxy(methyl)amino)methyl)-6-(2,4,6-trifluorophenyl)pyridin-2(1H)-one] | > 50 | > 50 | > 50 | > 50 | > 50 | > 50 | < 50 | < 50
15 | CCOc1cc(F)c(-c2c(CN(C)OC)cc(Cl)c(=O)n2CC)c(F)c1 [Compound No. 93, 3-chloro-6-(4-ethoxy-2,6-difluorophenyl)-1-ethyl-5-((methoxy(methyl)amino)methyl)pyridin-2(1H)-one] | > 50 | > 50 | > 50 | > 50 | > 50 | > 50 | > 50 | < 50
16 | CCn1c(-c2ccc(F)cc2Cl)c(CC(C)C)ccc1=O [Compound No. 98, 6-(2-chloro-4-fluorophenyl)-1-ethyl-5-isobutylpyridin-2(1H)-one] | > 50 | > 50 | > 50 | > 50 | > 50 | < 50 | < 50 | < 50
17 | CCn1c(-c2ccc(F)cc2Cl)c(CC(C)C)cc(Cl)c1=O [Compound No. 99, 3-chloro-6-(2-chloro-4-fluorophenyl)-1-ethyl-5-isobutylpyridin-2(1H)-one] | > 50 | > 50 | > 50 | > 50 | > 50 | > 50 | > 50 | > 50
18 | CCn1c(-c2c(F)cccc2F)c(C(C)(O)C(C)C)cc(Cl)c1=O (stereo not drawn) [Compound No. 183, 3-chloro-6-(2,6-difluorophenyl)-1-ethyl-5-(2-hydroxy-3-methylbutan-2-yl)pyridin-2(1H)-one] | > 50 | > 50 | > 50 | > 50 | > 50 | > 50 | > 50 | > 50

Reference: patent US11147272B2, “Pyridone compounds and agricultural and horticultural fungicides comprising the same as active ingredients” (MITSUI CHEMICALS AGRO, INC., priority 2017, dated 2021)
